One data set can be described thus: Solubility in water. The data set is classed as physicochemical.
Data set [1] is described as follows: Octanol-water partition coefficient (Pow) by 1H NMR. The class given is physicochemical. On the procedure: The experiment was performed as described in “Measuring Lipophilicity with NMR,” SpinSolve Carbon®, MagriTek (2014). Briefly, ^1H NMR spectra were recorded for NRLR-Cl in D2O, then an equivalent volume of 1-octanol was added to the same NMR tube, and the ^1H NMR was recorded again. The measurements were performed in triplicate. The Pow was calculated based on the concentrations of the NRLR-Cl in the D2O layer and in the octanol layer, as determined based on the NMR peak values. The average measured log POW of NRLR-Cl is 1.816.

Data set [2] deals with enhanced lipase (Candida rugens). Kind of data set: Lipase assay. The data set is classed as in vitro ADME. On the procedure:
NRLR was subjected to a lipase assay in 10% DMSO, 450 μL HEPES buffer, and enhanced lipase (Candida rugens).

Data set [3] deals with purine nucleoside phosphorylase (PNP). The experiment in a line: PNP enzyme activity assay (release of NAM monitored by 1H NMR). The class given is in vitro ADME. The settings on record: for stability to PNP (in words): triflates dissolved in DMSO; for ester hydrolysis / deprotection observed during PNP incubation: over time; for overall trend of stability of NR esters to PNP: rank order. As to the method:
To ensure that the stability rather than the solubility could be investigated, both the triflate and the chloride form of NRLR (“NRLR-OTf” and “NRLR-Cl”, respectively) were tested for their stability in aqueous buffers and as substrates of the enzyme purine nucleoside phosphorylase (PNP). The release of nicotinamide (NAM) was measured, which is indicative of water-catalyzed hydrolysis. Further, the release of ribose vs. phosphoriboside was monitored, which is indicative of PNP activity. Loss of esters via hydrolysis in buffer catalyzed condition also occurs over time. Once the C5-hydroxyl is free, PNP recognizes the nucleoside and catalyze phosphorolysis. It is not known whether this hydrolysis must occur for all the esters before PNP can act on the nucleoside. The scheme below illustrates the reaction with a partially deprotected nucleoside.
Phosphorolysis of NRCl by PNP (Sigma Aldrich) was performed in HEPES buffer, containing KH2PO4 and 10% D2O at 25° C. and was monitored by 1H NMR.
Incubations were conducted in the NMR tube which contained a final volume of 505 μl including 450 μl HEPES buffer (100.0 mM, pH 7.0), containing 100 mM KH2PO4, 50.0 μl NRCl (100.0 mM in 1 mL D2O) and when appropriate 5 μl PNP (1 mg dissolved in 50 μl HEPES buffer) was added and measurements were taken at t=5 min and 15 min.
Similarly, PNP study of NRAD-triflate was conducted in DMSO.

Setting [4] is: 1-octanol/D2O, single experiment, listed as NRLR-CI.

Several values for one entry are separate records, joined by “and”; a condition that tells them apart may be missing. Equal entries are not always repeated. Entries after “also recorded” stand apart in the source; their conditions may differ. Where two headings read alike, the source gives them in different places. Where only a bound is given, the exact number is not on record here.

Take `CCCCCCCCCCCC(=O)OC[C@H]1O[C@@H]([n+]2cccc(C(N)=O)c2)[C@H](OC(C)=O)[C@@H]1OC(C)=O` [NRLR-Cl, NRLR-Chloride]: the solubility in water result in the data set “Solubility in water” was “soluble in water”. In addition, the “Average (LogPow)” value in data set [1] (1-octanol/D2O, average of triplicate) is listed as 1.816. Further, in data set [1] (1-octanol/D2O, average of triplicate, read-out: Average (LogPow)), the logP was determined as 1.82. In data set [1] (setting [4]), the LogPow was 1.89 and 1.80 and 1.76; the Pow was 78.66 and 63.33 and 58.88. The “Peak values in water layer” value in data set [1] (1H NMR in D2O before octanol addition, listed as NRLR-CI) is 0.0478 and 0.0386 and 0.0539. The “Peak values after octanol addition” value in data set [1] (1H NMR, D2O layer after equivalent volume of 1-octanol, listed as NRLR-CI) was 0.0006 and 0.0009.
On to “NR-laurate (NRLR) triflate [compound 8g]”, for which the solubility in water entry in the data set “Solubility in water” is given as “not completely soluble in water”. Also, the solubility in water entry in “Solubility in water” (listed as NRLR-OTf) is given as “is not”. For the same compound, the “partial loss of one ester” value in data set [2] is less than 5%. Further, the “effect of increased concentration of lipase” value in data set [2] (over 12 hours of incubation) is reported as “no effect”. Also, in data set [3] (1H NMR), the “stability to PNP (in words)” value is recorded as “less stable compared to NR adipate” and the “ester hydrolysis / deprotection observed during PNP incubation” value was “partial deprotection of the esters over time”. Besides, in data set [3] (PNP, after 1 day (FIG. 40A)), the “increase in NAM” value is recorded as 30%. For the same compound, the “degraded to NAM” value in data set [3] (PNP, after 2 days (FIG. 40B)) is roughly 90%. In addition, the “overall increase in NAM” value in data set [3] (PNP, over 24 hours) is on record as 17%. Further, in data set [3], the “overall trend of stability of NR esters to PNP” value (“overall trend” below) was “NRTA>NRAD>NRML>NRLR>NRCl”.
Consider `NC(=O)c1ccc[n+]([C@@H]2O[C@H](CO)[C@@H](O)[C@H]2O)c1` [NRCl, Nicotinamide riboside, reference compound], for which the “stability to PNP (in words)” value in data set [3] (1H NMR) is “least stable to PNP enzyme”. The “time to complete conversion/degradation to NAM after PNP addition” value in data set [3] (HEPES buffer pH 7.0, KH2PO4, 10% D2O, 25° C., 1H NMR, listed as NR) is no more than 5 min. In addition, the “overall trend” value in data set [3] was “NRTA>NRAD>NRML>NRLR>NRCl”.
Turning to `CC(=O)OC[C@H]1O[C@@H]([n+]2cccc(C(N)=O)c2)[C@H](OC(C)=O)[C@@H]1OC(C)=O` [NRTA, NR triacetate, reference compound], in data set [3] (1H NMR), the “stability to PNP (in words)” value was “stable to PNP; also recorded: more stable to PNP than NRCL” and the “ester hydrolysis / deprotection observed during PNP incubation” value is reported as “Slow partial ester hydrolysis”. The “hydrolysis and NAM release with PNP” value in data set [3] (after 24 hours) is “very slowly hydrolyzed and releases NAM”. Also, the “overall trend” value in data set [3] is given as “NRTA>NRAD>NRML>NRLR>NRCl”.
`CC(=O)O[C@@H]1[C@H](OC(C)=O)[C@@H](COC(=O)CC(=O)OC[C@H]2O[C@@H]([n+]3cccc(C(N)=O)c3)[C@H](OC(C)=O)[C@@H]2OC(C)=O)O[C@H]1[n+]1cccc(C(N)=O)c1` [compound 8a, NR malonate]: the “stability to PNP (in words)” value in data set [3] (1H NMR) is recorded as “less stable compared to NR adipate”. Besides, the “remaining NR diester peaks” value in data set [3] (PNP, after 2 days (FIG. 40B)) was “still showed some NR diester peaks”. Moreover, the “overall trend” value in data set [3] is recorded as “NRTA>NRAD>NRML>NRLR>NRCl”.
With `CC(=O)O[C@@H]1[C@H](OC(C)=O)[C@@H](COC(=O)CCCCC(=O)OC[C@H]2O[C@@H]([n+]3cccc(C(N)=O)c3)[C@H](OC(C)=O)[C@@H]2OC(C)=O)O[C@H]1[n+]1cccc(C(N)=O)c1` [compound 8d, NR adipate], in data set [3] (1H NMR), the “stability to PNP (in words)” value was “appears stable to PNP” and the “ester hydrolysis / deprotection observed during PNP incubation” value is given as “ester dimer appeared to remain intact”. For the same compound, the “remaining NR diester peaks” value in data set [3] (PNP, after 2 days (FIG. 40B)) is “still showed some NR diester peaks”. For the same compound, the “overall trend” value in data set [3] is recorded as “NRTA>NRAD>NRML>NRLR>NRCl”.

For the origin of these results see US20250127804A1, “RIBOSE LINKERS AND CONJUGATES THEREOF” (ELYSIUM HEALTH INC., priority 2022, published 2025).
